Laboratory results taken from patent US20230111853A1, “COMPOUNDS MODULATING PROTEIN RECRUITMENT AND/OR DEGRADATION” (Orionis Biosciences, Inc., priority 2019, published 2023).
pEC50: −log10 of the molar value.

How the values were obtained:
Assay type in all cases: cell-based
[1] = biological target: T1, SALL4 recruitment to CRBN (Homo sapiens, UniProt Q96SW2); assay: Recruitment Assay (MAPPIT-like): SALL4 recruitment to CRBN; conditions: HEK293T cells; pSEL-SALL4+pMG1-CRBN; luciferase 24 hours after treatment; read-out: EC50_SALL4
T1 construct: Full size proteins were fused for each of the target proteins tested, except in the case of IKZF1 where isoform 7 was used; expressed in transfected cells; host or cells: HEK293T
Method: (§1) In this experimental set-up, cells were transfected with a construct encoding a CRBN-fusion protein and another one encoding a substrate-fusion protein. Test compound activity was assessed with increasing concentrations of test compounds (dose-response studies) to monitor the ability to promote CRBN-ligand-induced protein interaction.
(§2) Full size proteins were fused for each of the target proteins tested, except in the case of IKZF1 where isoform 7 was used. For the study, the following were used: IKZF1 recruitment: pSEL-CRBN+pMG1-IKZF1(isoform 7); ASS1 recruitment: pSEL-CRBN+pMG1-ASS1. SALL4 recruitment: pSEL-SALL4+pMG1-CRBN. […] Luciferase activity was measured 24 hours after test compound treatment using the Luciferase Assay System kit (PROMEGA, Madison, Wis.) with an Ensight plate reader (PERKIN ELMER LIFE SCIENCES, Waltham, Mass.). Data points depicted fold induction of the average luciferase activity of triplicate samples from EPO+test compound treated cells versus EPO only treated cells. Error bars represent standard deviations. Curves were fit using 4-parameter nonlinear regression in […] PRISM software.

[2] = system: IKZF1, ASS1 and SALL4 recruitment to CRBN; assay: Recruitment assessment: recruitment of any tested substrate from among IKZF1, ASS1 and SALL4; conditions: any tested substrate at any tested compound concentration
[3] = biological target: T2, IKZF1 (isoform 7) recruitment to CRBN (Homo sapiens, UniProt Q96SW2); assay: Recruitment Assay (MAPPIT-like): IKZF1 recruitment to CRBN; conditions: HEK293T cells; pSEL-CRBN+pMG1-IKZF1(isoform 7); luciferase 24 hours after treatment; read-out: EC50_IKZF1
T2 construct: Full size proteins were fused for each of the target proteins tested, except in the case of IKZF1 where isoform 7 was used; expressed in transfected cells; host or cells: HEK293T
Method: as §1, §2

T1 sequence (Q96SW2 whole entry, the tested form may be a part, canonical isoform): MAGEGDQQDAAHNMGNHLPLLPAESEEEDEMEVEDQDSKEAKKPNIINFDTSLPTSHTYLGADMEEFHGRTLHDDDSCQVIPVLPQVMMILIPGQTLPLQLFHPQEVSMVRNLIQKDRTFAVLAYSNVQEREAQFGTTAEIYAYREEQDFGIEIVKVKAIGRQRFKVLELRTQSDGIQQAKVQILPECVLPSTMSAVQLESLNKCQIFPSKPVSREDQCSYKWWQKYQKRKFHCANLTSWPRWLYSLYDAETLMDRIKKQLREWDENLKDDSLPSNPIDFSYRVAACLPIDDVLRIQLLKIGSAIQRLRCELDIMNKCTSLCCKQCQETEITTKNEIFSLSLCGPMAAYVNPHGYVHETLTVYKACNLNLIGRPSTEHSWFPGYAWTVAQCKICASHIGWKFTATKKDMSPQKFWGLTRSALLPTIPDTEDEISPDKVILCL
T1 sequence (Q9UJQ4 whole entry partner, the tested form may be a part, canonical isoform): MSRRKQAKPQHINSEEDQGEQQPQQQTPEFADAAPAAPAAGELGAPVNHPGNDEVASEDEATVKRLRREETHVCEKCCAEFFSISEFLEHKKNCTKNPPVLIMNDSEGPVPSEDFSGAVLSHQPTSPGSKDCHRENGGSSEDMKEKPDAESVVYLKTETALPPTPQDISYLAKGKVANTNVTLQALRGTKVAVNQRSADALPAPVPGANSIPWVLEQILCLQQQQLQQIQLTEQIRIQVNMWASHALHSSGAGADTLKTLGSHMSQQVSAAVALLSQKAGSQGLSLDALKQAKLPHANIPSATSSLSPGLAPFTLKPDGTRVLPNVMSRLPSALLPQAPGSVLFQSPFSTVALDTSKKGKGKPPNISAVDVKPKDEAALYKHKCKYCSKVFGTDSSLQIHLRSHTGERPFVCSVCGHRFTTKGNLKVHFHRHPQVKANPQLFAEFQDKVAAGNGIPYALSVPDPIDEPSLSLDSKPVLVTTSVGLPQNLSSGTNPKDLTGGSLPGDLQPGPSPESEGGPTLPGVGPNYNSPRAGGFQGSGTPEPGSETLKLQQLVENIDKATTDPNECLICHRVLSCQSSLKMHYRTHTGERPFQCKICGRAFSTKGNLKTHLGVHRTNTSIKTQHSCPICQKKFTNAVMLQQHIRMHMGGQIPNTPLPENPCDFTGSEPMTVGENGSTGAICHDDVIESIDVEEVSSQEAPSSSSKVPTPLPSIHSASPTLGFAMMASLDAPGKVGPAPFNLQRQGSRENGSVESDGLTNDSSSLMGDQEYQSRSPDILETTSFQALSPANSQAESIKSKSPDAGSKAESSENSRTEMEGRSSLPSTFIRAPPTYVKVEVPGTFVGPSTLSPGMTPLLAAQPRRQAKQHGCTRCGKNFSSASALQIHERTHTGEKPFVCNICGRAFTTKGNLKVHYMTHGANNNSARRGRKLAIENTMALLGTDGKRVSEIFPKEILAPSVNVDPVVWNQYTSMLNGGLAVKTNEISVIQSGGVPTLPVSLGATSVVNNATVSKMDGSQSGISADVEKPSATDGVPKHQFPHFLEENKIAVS
T1 sequence (Q16531 whole entry partner, the tested form may be a part, canonical isoform): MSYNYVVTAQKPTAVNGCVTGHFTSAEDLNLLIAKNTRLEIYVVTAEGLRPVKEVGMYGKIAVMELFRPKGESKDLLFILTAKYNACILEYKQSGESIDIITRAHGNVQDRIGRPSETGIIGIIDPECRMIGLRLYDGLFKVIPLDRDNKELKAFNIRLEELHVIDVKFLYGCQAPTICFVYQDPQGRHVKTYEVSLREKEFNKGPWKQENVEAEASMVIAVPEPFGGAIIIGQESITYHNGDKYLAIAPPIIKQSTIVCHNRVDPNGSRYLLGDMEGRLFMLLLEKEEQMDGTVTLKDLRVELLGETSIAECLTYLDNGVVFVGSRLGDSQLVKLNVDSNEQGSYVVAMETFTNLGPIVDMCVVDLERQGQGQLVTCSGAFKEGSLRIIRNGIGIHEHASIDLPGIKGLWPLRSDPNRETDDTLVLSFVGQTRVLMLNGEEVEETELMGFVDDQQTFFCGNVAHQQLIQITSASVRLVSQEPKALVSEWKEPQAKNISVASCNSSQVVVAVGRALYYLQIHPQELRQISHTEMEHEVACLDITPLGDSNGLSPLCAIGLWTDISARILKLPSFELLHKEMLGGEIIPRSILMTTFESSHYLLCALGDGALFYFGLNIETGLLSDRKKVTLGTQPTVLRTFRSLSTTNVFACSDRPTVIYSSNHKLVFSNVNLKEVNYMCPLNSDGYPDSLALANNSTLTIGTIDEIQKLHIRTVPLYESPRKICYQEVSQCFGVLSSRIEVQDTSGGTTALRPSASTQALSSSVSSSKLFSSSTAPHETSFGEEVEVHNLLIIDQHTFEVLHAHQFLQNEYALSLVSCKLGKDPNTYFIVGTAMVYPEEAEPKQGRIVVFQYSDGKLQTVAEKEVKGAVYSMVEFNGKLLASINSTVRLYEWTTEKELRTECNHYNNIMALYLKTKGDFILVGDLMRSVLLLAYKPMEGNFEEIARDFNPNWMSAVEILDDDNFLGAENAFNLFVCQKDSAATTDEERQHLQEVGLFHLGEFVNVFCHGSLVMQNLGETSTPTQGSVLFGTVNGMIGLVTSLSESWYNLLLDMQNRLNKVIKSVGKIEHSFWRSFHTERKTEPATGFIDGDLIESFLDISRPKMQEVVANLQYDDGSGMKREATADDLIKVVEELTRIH
T2 sequence (Q96SW2 whole entry, the tested form may be a part, canonical isoform): as the sequence (Q96SW2 whole entry, the tested form may be a part, canonical isoform) above
T2 sequence (Q13422 1-477 isoform Q13422-7 partner): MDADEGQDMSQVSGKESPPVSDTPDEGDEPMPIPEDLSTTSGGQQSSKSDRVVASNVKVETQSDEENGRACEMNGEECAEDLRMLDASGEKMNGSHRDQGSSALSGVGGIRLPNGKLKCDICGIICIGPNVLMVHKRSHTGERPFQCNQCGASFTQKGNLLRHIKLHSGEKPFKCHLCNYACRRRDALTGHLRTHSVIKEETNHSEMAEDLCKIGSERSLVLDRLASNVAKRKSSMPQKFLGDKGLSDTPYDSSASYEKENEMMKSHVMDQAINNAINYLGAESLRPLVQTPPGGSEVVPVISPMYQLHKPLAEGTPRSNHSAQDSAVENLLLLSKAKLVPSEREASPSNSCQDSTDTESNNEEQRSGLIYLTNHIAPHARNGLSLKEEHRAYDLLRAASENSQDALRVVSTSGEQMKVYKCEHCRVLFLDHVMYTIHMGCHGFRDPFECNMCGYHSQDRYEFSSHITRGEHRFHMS
T2 sequence (Q16531 whole entry partner, the tested form may be a part, canonical isoform): as the sequence (Q16531 whole entry partner, the tested form may be a part, canonical isoform) above

| SMILES | pEC50 [1] | Recruitment Assessment [2] | pEC50 [3] |
| --- | --- | --- | --- |
| CC(C)OC1c2ccccc2C(=O)N1C1CCC(=O)NC1=O (stereo not shown) [3-(1-isopropoxy-3-oxo-isoindolin-2-yl)piperidine-2,6-dione] | 5.57 | TRUE |  |
| Cc1nc2ccc(C#N)c(N)c2c(=O)n1C1CCC(=O)NC1=O (stereo not shown) [C10001, 5-amino-3-(2,6-dioxo-3-piperidyl)-2-methyl-4-oxo-quinazoline-6-carbonitrile] | 5.90 | TRUE |  |
| O=C1CCC(N2C(=O)c3ccccc3C2NCc2ccccc2)C(=O)N1 (stereo not shown) [C10239, 3-[1-(benzylamino)-3-oxo-isoindolin-2-yl]piperidine-2,6-dione] | 5.94 | TRUE |  |
| CN(C)C1c2ccccc2C(=O)N1C1CCC(=O)NC1=O (stereo not shown) [C10981, 3-[1-(dimethylamino)-3-oxo-isoindolin-2-yl]piperidine-2,6-dione] | 5.84 | TRUE |  |
| O=C1CCC(N2Cc3ccc(NCC(=O)NC4CCOCC4)cc3C2=O)C(=O)N1 (stereo not shown) [C12693, 2-[[2-(2,6-dioxo-3-piperidyl)-3-oxo-isoindolin-5-yl]amino]-N-tetrahydropyran-4-yl-acetamide] | 5.58 | TRUE |  |
| O=C1CCC(N2Cc3ccc(NCC(=O)NC4CCOC4)cc3C2=O)C(=O)N1 (stereo not shown) [C12694, 2-[[2-(2,6-dioxo-3-piperidyl)-3-oxo-isoindolin-5-yl]amino]-N-tetrahydrofuran-3-yl-acetamide] | 5.46 | TRUE |  |
| Cc1ccc2nnn(C3CCC(=O)NC3=O)c(=O)c2c1 (stereo not shown) [C16463, 3-(6-methyl-4-oxo-1,2,3-benzotriazin-3-yl)piperidine-2,6-dione] | 6.11 | TRUE |  |
| Cc1ccc2c(=O)n(C3CCC(=O)NC3=O)nnc2c1 (stereo not shown) [C17800, 3-(7-methyl-4-oxo-1,2,3-benzotriaan-3-yl)piperidirie-2,6-dione] | 6.04 | TRUE |  |
| CS(=O)(=O)Nc1cccc2c1CN(C1CCC(=O)NC1=O)C2=O (stereo not shown) [C22548, N-[2-(2,6-dioxo-3-piperidyl)-1-oxo-isoindolin-4-yl] methanesulfonamide] | 6.20 | TRUE | 6.31 |
| COCC(=O)Nc1cccc2c1CN(C1CCC(=O)NC1=O)C2=O (stereo not shown) [C22564, N-[2-(2,6-dioxo-3-piperidyl)-1-oxo-isoindolin-4-yl]-2-methoxy-acetamide] | 6.06 | TRUE |  |
| CN(C)CC(=O)Nc1cccc2c1CN(C1CCC(=O)NC1=O)C2=O (stereo not shown) [C22586, 2-(dimethylamino)-N-[2-(2,6-dioxo-3-piperidyl)-1-oxo-isoindolin-4-yl] acetamide] | 5.94 | TRUE |  |
| CCOC(=O)Nc1cccc2c1CN(C1CCC(=O)NC1=O)C2=O (stereo not shown) [C22622, ethyl N-[2-(2,6-dioxo-3-piperidyl)-1-oxo-isoindolin-4-yl]carbamate] | 6.92 | TRUE |  |
| O=C1CCC(N2Cc3cccc(F)c3C2=O)C(=O)N1 (stereo not shown) [C23066, 3-(7-fluoro-1-oxo-isoindolin-2-yl)piperidine-2,6-dione] | 7.05 | TRUE |  |
| Cc1ccc2c(c1)C(=O)N(C1CCC(=O)NC1=O)C2 (stereo not shown) [C28620, 3-(6-methyl-1-oxo-isoindolin-2-yl)piperidine-2,6-dione] | 6.57 | TRUE |  |
| CC(=O)Nc1ccc2c(c1)CN(C1CCC(=O)NC1=O)C2=O (stereo not shown) [C29361, N-[2-(2,6-dioxo-3-piperidyl)-1-oxo-isoindolin-5-yl]acetamide] | 6.73 | TRUE |  |
| O=C1CCCC(N2Cc3c(cccc3[N+](=O)[O-])C2=O)C(=O)N1 (stereo not shown) [C29737, 3-(4-nitro-1-oxo-isoindolin-2-yl)azepane-2,7-dione] |  | TRUE | 5.85 |
| O=C1CCC(N2Cc3c(NC(=O)Nc4cccc5c4CN(C4CCC(=O)NC4=O)C5=O)cccc3C2=O)C(=O)N1 (stereo not shown) [C30231, 1,3-bis[2-(2,6-dioxo-3-piperidyl)-1-oxo-isoindolin-4-yl]urea] | 5.77 | TRUE | 5.56 |
| CC(=O)NC1c2ccccc2C(=O)N1C1CCC(=O)NC1=O (stereo not shown) [C33779, N-[2-(2,6-dioxo-3-piperidyl)-3-oxo-isoindolin-1-yl]acetamide] | 5.52 | TRUE |  |
| CC(=O)NCCNc1ccc2c(c1)CN(C1CCC(=O)NC1=O)C2=O (stereo not shown) [C35745, N-[2-[[2-(2,6-dioxo-3-piperidyl)-1-oxo-isoindolin-5-yl]amino]ethyl]acetamide] | 5.58 | TRUE |  |

| SMILES | pEC50 [1] | Recruitment Assessment [2] | pEC50 [3] |
| --- | --- | --- | --- |
| CCOC(=O)NCCNc1ccc2c(c1)CN(C1CCC(=O)NC1=O)C2=O (stereo not shown) [C35754, ethyl N-[2-[[2-(2,6-dioxo-3-piperidyl)-1-oxo-isoindolin-5-yl]amino]ethyl]carbamate] | 6.56 | TRUE |  |
| NC(=O)c1cccc(NC(=O)CNc2ccc3c(c2)CN(C2CCC(=O)NC2=O)C3=O)c1 (stereo not shown) [C35811, 3-[[2-[[2-(2,6-dioxo-3-piperidyl)-1-oxo-isoindolin-5-yl]amino]acetyl]amino]benzamide] | 6.19 | TRUE |  |
| Nc1cccc2c1CN(C1CC(=O)NC1=O)C2=O (stereo not shown) [C47930, 3-(4-amino-1-oxo-isoindolin-2-yl)pyrrolidine-2,5-dione] |  | TRUE | 6.11 |
| O=C1CCC(N2Cc3ncccc3C2=O)C(=O)N1 (stereo not shown) [C47959, 3-(5-oxo-7H-pyrrolo[3,4-b]pyridin-6-yl)piperidine-2,6-dione] | 6.36 | TRUE |  |
| O=C(O)CNc1ccc2c(c1)CN(C1CCC(=O)NC1=O)C2=O (stereo not shown) [C47995, 2-[[2-(2,6-dioxo-3-piperidyl)-1-oxo-isoindolin-5-yl]amino]acetic acid] | 6.29 | TRUE |  |
| O=C(O)CNc1cccc2c1C(=O)N(C1CCC(=O)NC1=O)C2 (stereo not shown) [C47998, 2-[[2-(2,6-dioxo-3-piperidyl)-3-oxo-isoindolin-4-yl]amino]acetic acid] | 5.66 | TRUE |  |
| N#Cc1cccc2c1CN(C1CCC(=O)NC1=O)C2=O (stereo not shown) [C48003, 2-(2,6-dioxo-3-piperidyl)-1-oxo-isoindoline-4-carbonitrile] | 6.24 | TRUE |  |
| N#Cc1ccc2c(c1)CN(C1CCC(=O)NC1=O)C2=O (stereo not shown) [C48005, 2-(2,6-dioxo-3-piperidyl)-1-oxo-isoindoline-5-carbonitrile] | 6.23 | TRUE |  |
| O=C1CCC(N2Cc3cc(-c4ccccc4)ccc3C2=O)C(=O)N1 (stereo not shown) [C48016, 3-(1-oxo-5-phenyl-isoindolin-2-yl)piperidine-2,6-dione] | 6.91 | TRUE |  |
| O=C1CCC(N2Cc3ccc(-c4ccccc4)cc3C2=O)C(=O)N1 (stereo not shown) [C48018, 3-(1-oxo-6-phenyl-isoindolin-2-yl)piperidine-2,6-dione] | 6.40 | TRUE |  |
| O=C1CCC(N2C(=O)C3=C(C2=O)c2ccccc2CC3)C(=O)N1 (stereo not shown) [C64340, 2-(2,6-dioxo-3-piperidyl)-4,5-dihydrobenzo[e]isoindole-1,3-dione] | 5.83 | TRUE |  |
| O=C1CCC(N2Cc3cc4c(cc3C2=O)OCO4)C(=O)N1 (stereo not shown) [C68126, 3-(7-oxo-5H-[1,3]dioxolo[4,5-f]isoindol-6-yl)piperidine-2,6-dione] | 6.50 | TRUE |  |
| O=C1CCC(N2Cc3cc(Nc4ncc5[nH]cnc5n4)ccc3C2=O)C(=O)N1 (stereo not shown) [C80376, 3-[1-oxo-5-(7H-purin-2-ylamino)isoindolin-2-yl]piperidine-2,6-dione] | 6.25 | TRUE |  |
| O=C1CCC(N2Cc3ccc(Nc4ncc5c(n4)COC5)cc3C2=O)C(=O)N1 (stereo not shown) [C80391, 3-[6-(5,7-dihydrofuro[3,4-d]pyrimidin-2-ylamino)-1-oxo-isoindolin-2-yl]piperidine-2,6-dione] | 6.82 | TRUE |  |
| O=C1CCC(N2Cc3ccc(NC(=O)c4cnc5nccn5c4)cc3C2=O)C(=O)N1 (stereo not shown) [C80396, N-[2-(2,6-dioxo-3-piperidyl)-3-oxo-isoindolin-5-yl]imidazo[1,2-a] pyrimidine-6-carboxamide] | 5.86 | TRUE |  |
| CC(Nc1ccc2c(c1)C(=O)N(C1CCC(=O)NC1=O)C2)C(=O)O (stereo not shown) [C84970, 2-[[2-(2,6-dioxo-3-piperidyl)-3-oxo-isoindolin-5-yl]amino] propanoic acid] | 6.00 | TRUE |  |
| O=C1CCC(N2Cc3ccccc3C2)C(=O)N1 (stereo not shown) [C87699, 3-isoindolin-2-ylpiperidine-2.6-dione] | 5.32 | TRUE |  |
| O=C1CCC(N2C(=O)c3ccccc3C2O)C(=O)N1 (stereo not shown) [C89940, 3-(1-hydroxy-3-oxo-isoindolin-2-yl)piperidine-2,6-dione] | 6.36 | TRUE |  |
